For one series, the system named is PfNF54. The experiment in a line: In vitro ABS antiplasmodial activity, pLDH assay, drug-sensitive NF54. The series is classed as cell-based, Plasmodium falciparum. The following applies: read-out: PfNF54 IC50 ± SEM. An excerpt:
(§1) This side chain is also present in the well-known antiplasmodial agent, FQ.
(§2) Test samples were screened in technical duplicate or triplicate, for three or four biological replicates, for their in vitro blood stage antiplasmodial activity against both the drug-sensitive (NF54) and multidrug-resistant (K1) strains of . Continuous in vitro cultures of asexual erythrocyte stages of were maintained using a modified method of Trager and Jensen. A quantitative assessment of the in vitro antiplasmodial activity was determined via the parasite lactate dehydrogenase (pLDH) assay, using a modified method described by Makler and Hinrichs.
(§3) The test samples were prepared to a 20 mg/mL stock solution in 100% DMSO. Stock solutions were stored at −20 °C. Further dilutions were prepared in complete medium on the day of the experiment. […] Chloroquine diphosphate (CQDP) was used as the reference drug in all experiments. Test samples were tested at a starting concentration of either 100 μg/mL, 50 μg/mL, 10 μg/mL, or 1 μg/mL, which was then serially diluted 2-fold, in complete medium, to give 10 concentrations. The same dilution technique was used for all samples. […] The IC50 values were obtained from full dose–response curves, using a nonlinear dose–response curve fitting analysis, via GraphPad Prism v.5 software.

The next series relates to PfK1. In words: microbe, parasite or virus in culture. The following applies: read-out: PfK1 IC50 ± SEM. The series is classed as cell-based, Plasmodium falciparum.
From the text: as §1, §2, §3

Series [1] has as its system Immature gametocytes (>90% stage II/III). In words: microbe, parasite or virus in culture. The class given is cell-based, Plasmodium falciparum. The conditions noted are these: for % Inhibition, immature gametocytes: maximum inhibition at 10 μM, 48 h drug pressure; for inhibition at 5 µM: Plasmodium falciparum, read-out: % Inhibition, immature gametocytes (controls). The protocol:
(§4) Compounds are diluted 3-fold in at least a 9-point serial dilution series starting at 20 μM, with a nonlethal DMSO concentration of <0.1% maintained. Luciferase activity was determined in 30 μL parasite lysates by adding 30 μL luciferin substrate (Promega Luciferase Assay System) at room temperature and detection of resultant bioluminescence at an integration constant of 10 s with the GloMax-Multi + Detection System with Instinct Software. Methylene blue (5 μM) and the clinical antimalarial candidate MMV390048 (5 μM) were used as controls. IC50 values were determined in GraphPad Prism using a nonlinear regression fit with variable slope (4-parameter) on the dose–response data.
(§5) Assay quality parameters are evaluated for each assay, including Z′-factors (data quality compared to reproducibility using signal, noise, and background parameters; accepted metric >0.6), regression (accepted r 2 > 0.9); >80% viable parasites (top plateau); <20% killed parasites (bottom plateau), hill slope ∼1.

For series [2], the system named is Mature gametocytes (>95% stage V). In words: microbe, parasite or virus in culture. The series is classed as cell-based, Plasmodium falciparum. The conditions noted are these: for % Inhibition, mature gametocytes: maximum inhibition at 10 μM, 48 h drug pressure; for inhibition at 5 µM: Plasmodium falciparum, read-out: % Inhibition, mature gametocytes (controls). The protocol:
as §4, §5

The next series deals with β-hematin formation. The experiment in a line: NP-40 detergent-mediated β-hematin formation inhibition assay (cell-free). The series is classed as biochemical. The conditions noted are these: NP-40, pH 4.8, 5 h, 37 °C, read-out: β-hematin formation inhibition IC50 ± SEM. An excerpt:
The ability of a compound to inhibit Hz formation can be predicted using the biomimetic cell-free NP40 detergent-mediated β-hematin formation inhibition assay. , This assay mimics the conditions in the acidic DV of the parasite and relies on the binding of pyridine to uncrystallized free heme to detect the inhibition of β-hematin formation using UV–vis spectroscopy (with absorbance measured at 405 nm). , Consequently, the ability of the ferrocenyl quinoline-benzimidazole hybrids (C1–C5) to inhibit β-hematin (synthetic Hz) formation was investigated as a potential mechanism of antiplasmodial action.
The β-hematin formation inhibition assay was modified from the method reported by Sandlin et al. , Stock solutions of the respective test compounds were prepared to 10 mM, in 100% DMSO, with the exception of CQ (used in the salt form, CQDP), which was prepared in Milli-Q water. […] NP-40 is a detergent used to mediate the formation of β-hematin. The solution in column 12 was then serially diluted 2-fold, through to column 2, to give a total of 11 concentrations. Column 1 contained 0 μM of the test compound and thus served as a blank. […] A 178.8 μL aliquot of this hematin suspension was added to 20.0 mL of a 2 M acetate buffer (pH = 4.8) and 100 μL of this solution added to each well. The plates were then covered and incubated for 5 h, at 37 °C. The assay was analyzed using the pyridine-ferrochrome method developed by Ncokazi and Egan. A solution containing water/acetone/2 M HEPES buffer (pH 7.4)/pyridine, in a v/v ratio of 2/2/1/5, was prepared and 32 μL was added to all wells, followed by 60 μL of acetone. The absorbance values were then measured at 405 nm, the results plotted using GraphPad Prism (v5), and the IC50 values obtained using a sigmoidal dose–response curve fitting analysis.

The nature of series [3]: Hydroxyl radical (ROS) generation with H2O2, DCFH2 fluorescent probe. The following applies: 200 μM in 1:4 DMSO/PBS, H2O2 and H2DCF added, 30 min. From the text: Fluorogenic redox-sensitive probes are often employed to measure the presence of ROS, due to their low cost, ease of use, and nontoxicity, allowing for spectrofluorimetric measurements. 2′,7′-Dichlorodihydrofluorescein diacetate (DCFH2-DA) is the most widely used fluorogenic probe. Cleavage of the acetate groups, through alkaline hydrolysis, generates 2′,7′-dichlorodihydrofluorescein (DCFH2), which in the presence of oxidants, yields the highly fluorescent 2′,7′-dichlorofluorescein (DCF, λem = 523 nm). The DCFH2 probe reacts with an array of oxidants, making it an ideal indicator of general oxidative stress. […] The presence of these radicals was confirmed by monitoring the fluorescence over time (Figure ). […].
Stock solutions of DCFH2-DA were prepared to 1 mM in 100% DMSO and stored at −20 °C in the dark until use. The deacetylation of DCFH2-DA involved adding 2 μL of a 0.5 M NaOH solution to 200 μL of the 1 mM DCFH2-DA stock solution. The solution was mixed for 30 min, in the dark, at room temperature and then quenched with 800 μL of PBS buffer to obtain a 200 μM H2DCF 1:4 DMSO/PBS solution mixture.
[…]. The fluorometer was blanked using a 1:4 DMSO/PBS solution mixture. To identify hydroxyl radical production, 2 μL of a 0.5% H2O2 solution was added to 900 μL of the 200 μM complex solution in a cuvette at 25 °C. 100 μL of the prepared H2DCF solution (200 μM) was quickly added, and the readings recorded at 530 nm (emission wavelength), at 2 min intervals, over 30 min.

Series [4] in a line: Cyclic voltammetry of the ferrocene/ferrocenium couple. The following applies: for Reversibility of the ferrocene/ferrocenium couple: DCM/0.1 M TBAP system; for Ipc/Ipa / ΔE / Anodic peak potential Epa / Cathodic peak potential Epc / Half-wave potential E1/2: scan rate 100 mV/s, CH2Cl2, 0.1 M TBAP; for Anodic peak potential Epa / Cathodic peak potential Epc / Half-wave potential E1/2: vs Ag/AgCl. The series is classed as physicochemical. Here is the method: It has been proposed that the oxidation of ferrocene (Fe(C5H5)2) to the ferrocenium cation (Fe(C5H5)2 ^+) is a reversible one-electron transfer process. […] This prompted the investigation into the electrochemical properties of the Fe(C5H5)2/Fe(C5H5)2 ^+ couple in complexes C1–C5, using cyclic voltammetry. FQ was used as the reference, as it is considered the benchmark for all newly developed ferrocenyl-based antiplasmodials.
Nuclear magnetic resonance (NMR) spectra were recorded on a Bruker XR600 MHz spectrometer (^1H at 599.95 MHz and ^13C{^1H} at 151.0 MHz), a Bruker […] (^1H at 400.22 MHz and ^13C{^1H} at 100.65 MHz), or a Varian Mercury 300 (^1H at 300.08 MHz) spectrometer. These were equipped with a Bruker Biospin GmbH casing and sample injector at 30 °C and tetramethylsilane (TMS) was used as the internal standard. Coupling constants are reported in Hz and chemical shifts are reported in ppm relative to residual solvent signals. Infrared (IR) spectroscopy was performed on a PerkinElmer Spectrum 100 FT-IR spectrometer, using attenuated total reflectance (ATR), with vibrations measured in units of cm^–1. Cyclic voltammetric measurements were carried out at ambient temperature under an inert argon atmosphere using a three-electrode system on a BASi Epsilon Eclipse potentiostat/galvanostat electrochemical workstation. The C-3 cell stand, equipped with a glassy carbon working electrode, Ag/AgCl (saturated NaCl) reference electrode, and a Pt wire auxiliary electrode were used to carry out electrochemical measurements. All experiments were carried out in anhydrous dichloromethane containing 0.10 M tetra-n-butylammonium perchlorate (TBAP) as the supporting electrolyte.

For series [5], the system named is CHO cell line.
Procedure: (§6) The samples were tested over 48 h against the Chinese hamster ovarian (CHO) cell line to determine general cytotoxicity. […] Quantitative assessment of toxic activity in vitro was determined via the MTT assay using the method described. Cell viability was determined colorimetrically using the breakdown of a dye by enzymes of the electron transport chain, taking place in the mitochondria of metabolically active living cells, as a marker for survival.
(§7) Compounds were tested in triplicate on a single occasion against these cells using the MTT assay. The test samples were prepared to a 10 mM stock solution, in 100% DMSO, and stored at −20 °C until use. Samples were tested as a suspension if not completely dissolved. Further dilutions to the desired starting concentration were freshly prepared in growth media at the start of the experiment.
(§8) Cells were plated to a density of 10^5 cells/well in 96-well plates and allowed to attach for 24 h. […] After 44 h MTT was added, and the plates were read 4 h later at 540 nm on a spectrophotometer following the addition of 100 μL of DMSO and gentle plate-shaking to solubilize and visualize the dye. Survival was plotted against concentration, and the IC50 values were obtained using a nonlinear dose–response curve fitting analysis via the Dotmatics software platform.
In series [6] the test system is CHO cell line. In words: Cytotoxicity, MTT assay. The conditions noted are these: selectivity index.
Procedure: as §6, §7, §8
[7] abbreviates: drug-sensitive NF54, ABS, pLDH, 48 h incubation.
Setting [8] is: MDR K1, ABS, pLDH, 48 h incubation.

Read-outs that look alike come from different tables or passages of the source. A value given as a limit tells only on which side of the number the result lay.

`Cc1ccc2c(c1)nc(-[c-]1cccc1)n2CCNCCNc1ccnc2cc(Cl)ccc12.[Fe+2].c1cc[cH-]c1` [Complex C2, N1-(7-Chloroquinolin-4-yl)-N2-(2-(5-methyl-2-ferrocenyl-1H-benzo[d]imidazole-1-yl)ethyl)ethane-1,2-diamine]: the IC50 (usually the midpoint of a concentration-inhibition curve) in the series with PfNF54 (setting [7]) came to 38 ± 2 nM. For the same molecule, the IC50 in the series on PfK1 (setting [8]) came to 9.4 ± 0.9 nM. For the same molecule, the “% Inhibition, immature gametocytes” value in series [1] turned out to be 75%. Also, the “% Inhibition, mature gametocytes” value in [2] was determined as 32%. Moreover, in the series on β-hematin formation, the IC50 came to 4470 nM. The “Hydroxyl radical generation (fluorescence intensity over time)” value in series [3] is “no changes in the fluorescence intensity”. Further, in series [4], the “Reversibility of the ferrocene/ferrocenium couple” value was “chemically and electrochemically reversible”; the Ipc/Ipa is given as 1.03; the ΔE is 0.133 V; the “Anodic peak potential Epa” value amounted to 0.651 V. In series [4], the “Cathodic peak potential Epc” value came to 0.518 V and the “Half-wave potential E1/2” value is 0.584 V. Also, the CC50 (usually the concentration that lowers cell viability or growth by half) in the series on CHO cell line [5] is over 50000 nM.

As to `CN(C)c1ccc2nc3ccc(=[N+](C)C)cc-3sc2c1` [Methylene blue, reference compound], the inhibition (in general, the change of the read-out against control, counted positive when it falls) at 5 µM in [1] was over 97%; in series [2], 100%.

On to `Cc1ccc2c(c1)nc(-[c-]1cccc1CN(C)C)n2CCNCCNc1ccnc2cc(Cl)ccc12.[Fe+2].c1cc[cH-]c1` (stereo not shown) [Complex C4, N1-(7-Chloroquinolin-4-yl)-N2-(2-(5-methyl-2-(2-N,N-dimethylaminomethyl)ferrocenyl-1H-benzo[d]imidazole-1-yl)ethyl)ethane-1,2-diamine], for which the IC50 in the series on PfNF54 (setting [7]) came out at 38 ± 3 nM; in the series on PfK1 (setting [8]), 170 ± 20 nM; in the series on β-hematin formation, 4900 nM. Also, in [1], the “% Inhibition, immature gametocytes” value amounted to 59%. The “% Inhibition, mature gametocytes” value in [2] is 72%. In addition, the “Hydroxyl radical generation (fluorescence intensity over time)” value in series [3] is listed as “produce hydroxyl radicals”. For the same molecule, the “Reversibility of the ferrocene/ferrocenium couple” value in series [4] is “chemically and electrochemically irreversible”. Further, the “Anodic peak potential Epa” value in series [4] stood at 0.662 V. This molecule showed a CC50 in the series on CHO cell line [5] of 29800 ± 500 nM. In addition, in the series with CHO cell line [6], the “SI (CC50 CHO/IC50 NF54)” value is listed as 784.2.

As to `CCN(CC)CCCC(C)Nc1ccnc2cc(Cl)ccc12` (stereo not shown) [CQ, chloroquine, reference compound], the IC50 in the series with PfNF54 (Plasmodium falciparum, NF54, 48 h) was 15 ± 1 nM; with PfK1 (Plasmodium falciparum, 48 h) it was 170 ± 10 nM; with β-hematin formation, 11000 ± 870 nM.

Turning to `CS(=O)(=O)c1ccc(-c2cnc(N)c(-c3ccc(C(F)(F)F)nc3)c2)cc1` [MMV390048, reference compound], the inhibition at 5 µM is over 77% in [1] and over 93% in [2].

For the molecule `Cc1ccc2c(c1)nc(-[c-]1cccc1)n2CCN(CCNc1ccnc2cc(Cl)ccc12)[c-]1cccc1.[Fe+2].[Fe+2].c1cc[cH-]c1.c1cc[cH-]c1` [Complex C5, N1-Ferrocenyl-N2-(7-Chloroquinolin-4-yl)-N1-(2-(5-methyl-2-ferrocenyl-1H-benzo[d]imidazole-1-yl)ethyl)ethane-1,2-diamine], in the series with PfNF54 (setting [7]), the IC50 is 1510 ± 140 nM. Also, the IC50 in the series with PfK1 (setting [8]) turned out to be 14500 ± 1140 nM. In [1], the “% Inhibition, immature gametocytes” value is 60%. In series [2], the “% Inhibition, mature gametocytes” value is 32%. The IC50 in the series with β-hematin formation amounted to 37700 ± 770 nM. The “Hydroxyl radical generation (fluorescence intensity over time)” value in series [3] is listed as “no changes in the fluorescence intensity”. Moreover, in series [4], the “Reversibility of the ferrocene/ferrocenium couple” value was “chemically and electrochemically reversible”; the Ipc/Ipa is given as 1.04; the ΔE was 0.190 V; the “Anodic peak potential Epa” value came to 0.632 V. In addition, in series [4], the “Cathodic peak potential Epc” value stood at 0.442 V and the “Half-wave potential E1/2” value was 0.537 V. The molecule further registered a CC50 in the series with CHO cell line [5] of over 50000 nM.

In the case of `[Fe+2].c1cc[cH-]c1.c1cc[cH-]c1` [Ferrocene, reference compound], the “Hydroxyl radical generation (fluorescence intensity over time)” value in series [3] was “generate hydroxyl radicals”. Also, in series [4], the Ipc/Ipa turned out to be 1.05, the ΔE is on record as 0.171 V, the “Anodic peak potential Epa” value worked out at 0.543 V and the “Cathodic peak potential Epc” value turned out to be 0.372 V. Also, the “Half-wave potential E1/2” value in series [4] came to 0.458 V.

Values taken from article PMC12344774, “Ferrocenyl Quinoline-Benzimidazole Hybrids: A Multistage Strategy to Combat Drug-Resistant Malaria” (Inorganic Chemistry, 2025).
